# Data from article PMC12775149 (Nature Communications, 2025).
# How the values were obtained:
# AtCAT1 = molecular target: T1, AtCAT1 (Arabidopsis thaliana, UniProt Q84MA5); assay: LC-MS/MS of PPT accumulated in overexpressing M. polymorpha versus Tak-1; details: whole plants, 100 µM PPT
# T1 sequence (Q84MA5 2-594): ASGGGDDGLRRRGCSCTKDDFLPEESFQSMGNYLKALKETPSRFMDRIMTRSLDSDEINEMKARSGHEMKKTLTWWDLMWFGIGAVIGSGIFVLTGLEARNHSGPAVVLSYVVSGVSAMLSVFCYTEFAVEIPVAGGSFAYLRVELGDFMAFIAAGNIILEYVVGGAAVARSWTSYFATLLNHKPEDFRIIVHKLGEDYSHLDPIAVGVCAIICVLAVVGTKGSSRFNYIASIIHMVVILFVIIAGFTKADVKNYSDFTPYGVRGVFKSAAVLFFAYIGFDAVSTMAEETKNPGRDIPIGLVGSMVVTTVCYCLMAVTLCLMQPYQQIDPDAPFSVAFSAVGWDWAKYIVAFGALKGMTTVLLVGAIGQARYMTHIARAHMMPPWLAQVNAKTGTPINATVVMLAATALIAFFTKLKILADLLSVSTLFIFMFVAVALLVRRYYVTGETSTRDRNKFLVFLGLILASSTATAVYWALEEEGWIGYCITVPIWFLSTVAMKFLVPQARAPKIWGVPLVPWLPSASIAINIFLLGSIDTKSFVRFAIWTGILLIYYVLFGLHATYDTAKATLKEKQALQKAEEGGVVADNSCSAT
# AtCAT5 = molecular target: T2, AtCAT5 (Arabidopsis thaliana, UniProt O64759); assay: as above; details: whole plants, 100 µM PPT (time course at 1 mM PPT up to 48 h)
# T2 sequence (O64759 1-569): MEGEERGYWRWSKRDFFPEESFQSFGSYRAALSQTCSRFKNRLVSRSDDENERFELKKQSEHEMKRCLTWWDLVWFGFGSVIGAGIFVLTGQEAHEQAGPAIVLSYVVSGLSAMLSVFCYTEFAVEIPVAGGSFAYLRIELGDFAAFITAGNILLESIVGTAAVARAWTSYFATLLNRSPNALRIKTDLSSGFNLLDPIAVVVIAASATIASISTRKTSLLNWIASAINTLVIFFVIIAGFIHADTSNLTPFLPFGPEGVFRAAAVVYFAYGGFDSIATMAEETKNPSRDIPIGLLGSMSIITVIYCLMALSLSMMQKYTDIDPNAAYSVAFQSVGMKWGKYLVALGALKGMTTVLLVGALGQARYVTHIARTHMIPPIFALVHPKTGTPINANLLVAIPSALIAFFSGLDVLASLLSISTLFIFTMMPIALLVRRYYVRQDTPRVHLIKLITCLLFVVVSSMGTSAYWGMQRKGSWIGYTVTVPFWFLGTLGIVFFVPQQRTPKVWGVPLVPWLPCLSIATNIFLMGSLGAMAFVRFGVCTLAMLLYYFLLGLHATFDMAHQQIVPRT
smiles,measurement,setting,value
"CP(=O)(O)CC[C@H](N)C(=O)O [PPT, L-phosphinothricin]",PPT accumulation,AtCAT1,Increased PPT contents in both AtCAT1ox and AtCAT5ox lines confirmed the successful mediation
same,PPT accumulation,AtCAT5,Increased PPT contents in both AtCAT1ox and AtCAT5ox lines confirmed the successful mediation
